US6649656B1, “Anthranilic acid derivatives” (Teijin Limited, priority 1998, dated 2003)
Read-outs that look alike come from different tables or passages of the source.

Key:
Assay type in all cases: cell-based
[1] = system: L929 cells; assay: Measurement of cytotoxicity using mouse tumor cell L929 (neutral red assay)
Method: [Procedure] The cytotoxicity action on tumor cell was measured by neutral red assay (the method described in the Journal of Tissue Culture Methodology vol.9, p.7 (1984) and Toxicology Letters, vol.24, p.119 (1985)). Concretely, L929 cells (5×10^4 cells/ml, 10% FCS/RPMI) were added to the wells of a 96 well ELISA plate at a rate of 100 μL each and cultured for a night, and the testing compounds of respective measurement concentrations were dissolved in DMSO solution and added to the above cells. The culture was continued for 3 days, and 2.0 μL of Neutral Red was added to attain the final concentration of 0.01%. The mixture was incubated for 1 hour at 37° C., the supernatant of the cell culture product was removed and the residue was washed twice with 200 μL of PBS to remove excess Neutral Red. Thereafter, the dye taken into the cell was extracted by adding 100 μL of 50% ethanol-1% acetic acid aqueous solution and the amount of the dye was determined by measuring the absorbance at 490 nm. The cytotoxicity was determined at each concentration of the test compound taking the cytotoxicity free from the drug as 100%. […] Two sets of measurement were performed for each test under the same condition and the average value was used as the test result.

[2] = system: IgE antibody production from human lymphocyte; assay: Human in vitro IgE antibody production suppressing activity (lymphocyte culture with IL-4 + IL-10 + anti-CD40 antibody, sandwich ELISA); conditions: for IC50: IgE antibody production; for inhibition at 1 µM: test drug concentration 1 μM, IL-4 + IL-10 + anti-CD40 antibody, read-out: IgE production suppressing ratio (%)
Method: (§1) The concentrations of IgE and IgG antibodies were measured by the following method according to the method described in the Journal of Immunology vol.146, pp.1836-1842, 1991 and the Journal of Immunology vol. 147, pp.8-13, 1991.
(§2) Concretely, lymphocyte was separated from the peripheral venous blood of healthy person by density gradient centrifugation. The obtained lymphocyte was washed, suspended in a culture liquid (RPMI-1640 (product of Gibco Co.)+10% heat-inactivated FCS (product of Whittaker Co.)+100 μg/ml streptomycin+100 U/ml penicillin G+2 mM L-glutamine) and cultured for a week in the presence of interleukin 4 (IL-4, product of GENZYME Co.) (0.1 μg/ml), anti-CD40 antibody (antiCD40Aab, product of BIOSOURCE Co.), clone B-B20) (2 μg/ml) and interleukin 10 (IL-10, product of GENZYME Co.) (0.2 μg/ml) in the presence or absence of the compounds of the present invention described in the Tables 10 to 15 at various concentrations as test drugs.
(§3) The culture liquid was added to the culture system, the culture was continued for additional one week, and the concentrations of IgE and IgG antibodies in the supernatant were measured by sandwich ELISA method.
(§4) The measurement by ELISA method was carried out according to the known ELISA method by using rabbit anti-human IgE(ε) antibody (product of ICN Co.) as the primary antibody and biotin.anti-human IgE monoclonal antibody (G7-26, product of PharMingen Co.) as the secondary antibody for the measurement of IgE antibody concentration and anti-human IgG monoclonal antibody (G18-145, product of PharMingen Co.) as the primary antibody and biotin-donkey anti-human IgG antibody (H+L) (product of Jackson Co.) as the secondary antibody for the measurement of IgG antibody concentration, and using avidin-biotin-hourse radish peroxidase (ABC kit, product of Vector Lab.) as the enzyme and TMB (3,3′,5,5′-tetramethylbenzidine) microwell peroxidase substrate system (product of Kirkegaard & Perry Laboratories Inc.) as the substrate.
(§5) The value of IC50 and the suppressing ratio (%) at the test drug concentration of 1 μM were calculated based on the concentration attained in the absence of the compound of the present invention (reference: Ueshimna, et al. American Academy of Allergy & Immunology, 1995 Annual Meeting, Program No.818).

[3] = system: IgG antibody production from human lymphocyte; assay: Human in vitro IgG antibody production (same lymphocyte culture, sandwich ELISA); conditions: for inhibition at 1 µM: Homo sapiens, Lymphocyte, test drug concentration 1 μM, IL-4 + IL-10 + anti-CD40 antibody, read-out: IgG production suppressing ratio (%); for IC50: IgG antibody production
Method: as §1, §2, §3, §4, §5

[4] = 72 h, cytotoxic activity against L929, neutral red assay, 3 days culture, read-out: LD50 (the source's name)
[5] = L929, 72 h, read-out: LD50 (μM)

| Compound | CC50 [1, 4] | CC50 [1, 5] | IC50 [2] | inhibition at 1 µM [2] | inhibition at 1 µM [3] | IC50 [3] |
| --- | --- | --- | --- | --- | --- | --- |
| O=C(CCCOc1ccc2cc(Oc3ccc(CC(=O)Nc4ccccc4C(=O)O)cc3)ccc2c1)Nc1ccccc1C(=O)O [compound 4] | 0.375 µM | – | – | – | – | – |
| O=C(Cc1ccc(Oc2ccc3cc(OCC(=O)c4ccccc4)ccc3c2)cc1)Nc1ccccc1C(=O)O [compound 6] | – | 2.4 µM | – | – | – | – |
| O=C(Cc1ccc(Oc2ccc(OCc3ccncc3)cc2)cc1)Nc1ccccc1C(=O)O [compound 37] | – | 1.02 µM | – | – | – | – |
| O=C(Cc1ccc(Oc2ccc(OC3CCOCC3)cc2)cc1)Nc1ccccc1C(=O)O [compound 44] | – | 1.16 µM | 0.221 µM | 100% | 88.5% | 0.404 µM |
| CC(=O)Nc1ccc(CCOc2ccc(Oc3ccc(CC(=O)Nc4ccccc4C(=O)O)cc3)cc2)cc1 [compound 45] | 0.22 µM | – | 0.305 µM | 99.4% | -179% | 0.631 µM |
| CN(C)CCOc1ccc(Oc2ccc(CC(=O)Nc3ccccc3C(=O)O)cc2)cc1 [compound 47] | 0.2 µM | – | – | – | – | – |
| COC(=O)N1CCC[C@H]1COc1ccc(Oc2ccc(CC(=O)Nc3ccccc3C(=O)O)cc2)cc1 [compound 59] | – | 2.4 µM | – | – | – | – |
| CC(=O)NC1(COc2ccc(Oc3ccc(CC(=O)Nc4ccccc4C(=O)O)cc3)cc2)CCCC1 [compound 73] | – | > 5 µM | – | – | – | – |
| O=C(Cc1ccc(Oc2ccc(OCC3(NC(=O)c4ccccc4)CCCC3)cc2)cc1)Nc1ccccc1C(=O)O [compound 74] | – | > 5 µM | – | – | – | – |
| COC(=O)N1CCC(Oc2ccc(Oc3ccc(CC(=O)Nc4ccccc4C(=O)O)cc3)cc2)CC1 [compound 79] | – | 0.98 µM | 0.04 µM | 100% | 92.4% | 0.489 µM |
| O=C(Nc1ccccc1C(=O)O)c1ccc(Oc2ccc(OCCN3CCCCC3)cc2)cc1 [compound 93] | – | – | 0.738 µM | 56.2% | – | > 10 µM |
| O=C(Cc1ccc(Oc2ccc(OC3CCC(NC(=O)c4ccc(Cl)c(Cl)c4)CC3)cc2)cc1)Nc1ccccc1C(=O)O (stereo not drawn) [compound 100] | 0.95 µM | – | 0.028 µM | 100% | 100% | 0.244 µM |
